Values quoted from earlier work, collected in PMC7810697, “Sarcolipin alters SERCA1a interdomain communication by impairing binding of both calcium and ATP” (Scientific Reports, 2021).

Tested on: SERCA1a
Conditions: cited from earlier work
Excerpt: Besides its various roles in protein signalling and addressing, palmitoylation can also regulate oligomerisation processes of membrane proteins. Recent work has shown that other P-type ATPases regulatory subunits like phospholamban (PLB) and phospholemman (PLM) are palmitoylated[16],[17]. Acylation of PLB and PLM is functionally relevant by having an impact on the oligomerisation of the peptides, their association with their dedicated pumps (Ca^2+-ATPase or Na+, K+-ATPase, respectively) and on their lifetime.

Substance: SLN: chemically synthesized non-palmitoylated rabbit sarcolipin; in cited literature results sarcolipin in general (MERSTRELCLNFTVVLITVILIWLLVRSYQY; UniProt P42532 1-31, looked up)
- effect of phosphorylation of SLN:Thr5 on SERCA1a inhibition: loss of inhibition of SERCA1a
